Results published in patent US12171813B2, “Methods of and compositions for reducing gene expression and/or activity” (Christiana Care Gene Editing Institute, Inc., priority 2021, dated 2024).

Tested on: NRF2 gene
Test: Genomic DNA PCR assessment of large deletions in NRF2 gene
Type: cell-based, Human
Details: gRNA alone, not paired
Description: After CRISPR reactions, genomic DNA was prepared for PCR amplification of the target region from NRF2 gene. PCR-amplified DNA was then analyzed by electrophoresis through a 1% agarose gel for 75 minutes at 80v. DNA was stained with SYBR Safe. Lanes 1 and 12: NEB 2 Log Ladder; Lane 2: Scrambled gRNA; Lane 3: R34G gRNA alone; Lane 4: NRF2 3-4 SureKill gRNA 3 alone; Lane 5: NRF2 3-4 SureKill gRNA 12 alone; Lane 6: NRF2 3-4 SureKill gRNA 14 alone; Lane 7: NRF2 3-4 SureKill gRNA 15 alone; Lane 8: NRF2 3-4 SureKill gRNA 3+R34G gRNA; Lane 9: NRF2 3-4 SureKill gRNA 12+R34G gRNA; Lane 10: NRF2 3-4 SureKill gRNA 14+R34G gRNA; Lane 11: NRF2 3-4 SureKill gRNA 15+R34G gRNA. On the left side of the image are markers indicating DNA size in bp. Expected dropout size for NRF2 3-4 SureKill gRNA 3+R34G gRNA: 676 bp. Expected dropout size for NRF2 3-4 SureKill gRNA 12+R34G gRNA: 658 bp. Expected dropout size for NRF2 3-4 SureKill gRNA 14+R34G gRNA: 582 bp. Expected dropout size for NRF2 3-4 SureKill gRNA 15+R34G gRNA: 515 bp. Dropout bands are indicated by asterisks.
Human lung squamous cell carcinoma NCI-H1703 clone 44-25 cells were derived from NCI-H1703 cells (#CRL-5889) which were purchased from ATCC (Manassas, VA, USA). […]
Transfections were carried out using the Lonza Nuclefector 4d. […] RNPs were complexed at 250:50 pmol for 30 minutes prior to transfection, during which time cells were harvested and counted. […]

With “R34G gRNA: guide RNA GATATAGATCTTGGAGTAAG, SEQ ID NO:1, targets NRF2 R34G mutation (listed as DNA, chemistry not given here)” the “large deletions (genomic DNA PCR)” value was “does not induce a large deletion”.
